Tests used:
Assay in all cases: product identification by GC-QToF
Type in all cases: biochemical
[1] = target: T1, RrNerS (AHY47823.1), linalool/nerolidol synthase (Rubrobacter radiotolerans, UniProt A0A023X648); settings: 5 mM MgCl2, 25 mM Tris-HCl pH 7.8, 28 C overnight
T1 construct: gene RradSPS_2540; codon-optimised, pETM11, N-terminal His-tag (TEV cleavable), E. coli, Ni-NTA purified
T1 sequence (A0A023X648 1-315): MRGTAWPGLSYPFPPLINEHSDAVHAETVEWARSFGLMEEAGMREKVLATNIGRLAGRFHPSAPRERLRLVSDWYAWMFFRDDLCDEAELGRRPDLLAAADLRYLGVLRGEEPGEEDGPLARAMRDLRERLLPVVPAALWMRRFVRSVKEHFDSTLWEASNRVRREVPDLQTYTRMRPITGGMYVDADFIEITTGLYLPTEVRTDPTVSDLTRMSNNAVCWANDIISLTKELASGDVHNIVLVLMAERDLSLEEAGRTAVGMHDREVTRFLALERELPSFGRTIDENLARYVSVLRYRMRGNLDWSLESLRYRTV

[2] = target: T2, MiGerS (ADU09376.1), germacatriene synthase (Micromonospora aurantiaca (nom. illeg.), UniProt A0ABQ6UH67); settings: 75 uM FPP, 5 mM MgCl2, 25 mM Tris-HCl pH 7.8, 28 C overnight; products germacrene A (seen as beta-elemene) and 1(10),4,11-germacratriene
T2 construct: gene F6X54_13130; codon-optimised, pETM11, N-terminal His-tag (TEV cleavable), E. coli, Ni-NTA purified

RrBerS (AHY45426.1) = target: T3, RrBerS (AHY45426.1) (Rubrobacter radiotolerans, UniProt A0A023WZP4); settings: 5 mM MgCl2, 25 mM Tris-HCl pH 7.8, 28 C overnight
T3 construct: gene RradSPS_0143; codon-optimised, pETM11, N-terminal His-tag (TEV cleavable), E. coli, Ni-NTA purified
T3 sequence (A0A023WZP4 1-348): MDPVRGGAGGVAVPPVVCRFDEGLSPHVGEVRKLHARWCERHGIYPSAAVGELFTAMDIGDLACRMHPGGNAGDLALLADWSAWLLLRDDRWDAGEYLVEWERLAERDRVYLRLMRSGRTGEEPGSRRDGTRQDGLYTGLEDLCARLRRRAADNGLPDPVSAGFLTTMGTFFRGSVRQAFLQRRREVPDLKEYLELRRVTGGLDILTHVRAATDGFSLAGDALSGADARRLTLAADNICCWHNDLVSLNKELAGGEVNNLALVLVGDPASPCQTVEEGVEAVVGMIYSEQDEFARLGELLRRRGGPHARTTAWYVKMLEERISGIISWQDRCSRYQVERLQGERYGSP

[3] = target: T4, ScGeoS, geosmin synthase (CAB41566.1) (Streptomyces coelicolor, UniProt Q9X839); settings: 75 uM FPP, 5 mM MgCl2, 25 mM Tris-HCl pH 7.8, 28 C overnight; products geosmin, germacradienol, germacrene D; positive control
T4 construct: gene cyc2; bi-domain enzyme, recombinant, purified; pETM11 N-terminal His-tag

KaGerS (AHH94051.1) = target: T5, KaGerS (AHH94051.1) (Kutzneria viridogrisea, UniProt W5W0G4); settings: 75 uM FPP, 5 mM MgCl2, 25 mM Tris-HCl pH 7.8, 28 C overnight; products germacradienol and germacrene D
T5 construct: gene KALB_676; codon-optimised, pETM11, N-terminal His-tag (TEV cleavable), E. coli, Ni-NTA purified
Source text: product identification by GC-QToF on KaGerS (AHH94051.1) | we tested its functionality with FPP in in vitro conditions. This yielded germacradienol and germacrene D

[4] = target: T6, ScAroS (KYF56472.1), aromandendrene synthase (Sorangium cellulosum, UniProt Z9C2K8JLD0); settings: 75 uM FPP, 5 mM MgCl2, 25 mM Tris-HCl pH 7.8, 28 C overnight; product aromadendrene
T6 construct: codon-optimised, pETM11, N-terminal His-tag (TEV cleavable), E. coli, Ni-NTA purified
T6 sequence (Z9C2K8JLD0 1-329): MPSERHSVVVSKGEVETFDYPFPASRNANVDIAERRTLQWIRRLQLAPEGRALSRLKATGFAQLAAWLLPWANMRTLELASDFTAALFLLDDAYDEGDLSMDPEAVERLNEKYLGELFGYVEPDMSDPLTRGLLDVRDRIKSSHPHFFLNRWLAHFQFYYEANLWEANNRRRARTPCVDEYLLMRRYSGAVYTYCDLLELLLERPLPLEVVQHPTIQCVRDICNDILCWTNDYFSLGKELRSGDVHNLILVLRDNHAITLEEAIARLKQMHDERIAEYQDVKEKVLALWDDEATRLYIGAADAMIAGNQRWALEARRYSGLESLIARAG

[5] = target: T7, ScEpiS (CAN96536.1), 10-epi-cubebol synthase (Sorangium cellulosum, UniProt A9GK58); settings: 5 mM MgCl2, 25 mM Tris-HCl pH 7.8, 28 C overnight
T7 construct: gene sce6369; codon-optimised, pETM11, N-terminal His-tag (TEV cleavable), E. coli, Ni-NTA purified
T7 sequence (A9GK58 1-315): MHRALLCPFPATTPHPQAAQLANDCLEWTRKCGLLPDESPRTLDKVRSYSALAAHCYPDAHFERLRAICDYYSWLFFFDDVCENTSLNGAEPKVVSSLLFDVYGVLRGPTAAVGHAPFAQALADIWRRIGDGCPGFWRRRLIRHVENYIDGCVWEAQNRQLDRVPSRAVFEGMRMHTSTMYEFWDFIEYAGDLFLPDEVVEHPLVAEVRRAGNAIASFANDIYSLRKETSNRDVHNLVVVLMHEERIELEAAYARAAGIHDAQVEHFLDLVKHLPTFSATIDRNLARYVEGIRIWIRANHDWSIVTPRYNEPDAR

T5 sequence (W5W0G4 1-363): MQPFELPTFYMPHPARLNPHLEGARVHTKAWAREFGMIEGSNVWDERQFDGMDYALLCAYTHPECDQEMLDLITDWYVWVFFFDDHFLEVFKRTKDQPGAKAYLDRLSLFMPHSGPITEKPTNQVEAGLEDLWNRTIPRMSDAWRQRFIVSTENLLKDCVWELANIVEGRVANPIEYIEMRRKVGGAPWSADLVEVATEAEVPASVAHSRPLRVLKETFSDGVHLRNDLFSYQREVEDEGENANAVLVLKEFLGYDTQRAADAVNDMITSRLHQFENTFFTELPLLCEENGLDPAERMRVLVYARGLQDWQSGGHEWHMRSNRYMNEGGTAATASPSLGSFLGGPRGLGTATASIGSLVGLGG
T4 sequence (Q9X839 whole entry): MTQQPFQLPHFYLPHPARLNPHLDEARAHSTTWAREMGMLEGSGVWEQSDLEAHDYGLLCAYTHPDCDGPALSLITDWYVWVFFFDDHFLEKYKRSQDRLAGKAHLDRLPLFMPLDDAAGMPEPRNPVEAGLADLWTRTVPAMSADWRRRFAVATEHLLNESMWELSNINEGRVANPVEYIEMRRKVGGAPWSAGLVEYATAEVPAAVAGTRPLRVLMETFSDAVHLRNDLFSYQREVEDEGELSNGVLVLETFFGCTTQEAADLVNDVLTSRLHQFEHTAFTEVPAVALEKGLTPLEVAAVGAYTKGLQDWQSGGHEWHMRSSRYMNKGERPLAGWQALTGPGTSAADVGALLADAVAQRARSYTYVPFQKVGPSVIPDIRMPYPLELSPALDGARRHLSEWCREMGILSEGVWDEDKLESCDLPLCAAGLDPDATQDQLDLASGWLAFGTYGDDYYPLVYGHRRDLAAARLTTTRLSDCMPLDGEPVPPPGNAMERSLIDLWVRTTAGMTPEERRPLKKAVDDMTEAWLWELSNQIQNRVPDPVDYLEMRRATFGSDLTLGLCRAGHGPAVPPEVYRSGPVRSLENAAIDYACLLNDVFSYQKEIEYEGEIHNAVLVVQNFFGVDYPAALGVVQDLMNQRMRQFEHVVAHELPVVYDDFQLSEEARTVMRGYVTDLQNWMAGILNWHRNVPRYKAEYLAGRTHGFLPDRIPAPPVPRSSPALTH
T2 sequence (A0ABQ6UH67 entry or part of it): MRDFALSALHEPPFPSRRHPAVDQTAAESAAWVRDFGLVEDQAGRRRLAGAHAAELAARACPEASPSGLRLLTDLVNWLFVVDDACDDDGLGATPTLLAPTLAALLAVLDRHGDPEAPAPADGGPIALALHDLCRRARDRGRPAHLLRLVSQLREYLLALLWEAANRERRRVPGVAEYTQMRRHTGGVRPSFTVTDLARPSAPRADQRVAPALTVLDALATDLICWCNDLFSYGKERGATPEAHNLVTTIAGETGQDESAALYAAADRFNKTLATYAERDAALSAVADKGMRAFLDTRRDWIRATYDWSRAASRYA

Row | SMILES | product identification by GC-QToF ([1]; 75 uM FPP, product trans-nerolidol) | product identification by GC-QToF [2] | product identification by GC-QToF (RrBerS (AHY45426.1); 75 uM FPP, product alpha-bergamotene) | product identification by GC-QToF [3] | product identification by GC-QToF (KaGerS (AHH94051.1)) | product identification by GC-QToF [4] | product identification by GC-QToF ([5]; 75 uM FPP, products 10-epi-cubebol and others) | product identification by GC-QToF ([1]; 100 uM GPP, products R- and S-linalool) | product identification by GC-QToF (RrBerS (AHY45426.1); 100 uM GPP, product linalool) | product identification by GC-QToF ([5]; 100 uM GPP, products cis/trans-beta-ocimene and linalool)
1 | CC(C)=CCC/C(C)=C/CC/C(C)=C/COP(=O)(O)OP(=O)(O)O [FPP] | with FPP yielded a single product that was identified as trans-nerolidol by GC–QToF analysis | incubated with FPP yielded β-elemene, and 8-isopropenyl-1,5-dimethyl-1,5-cyclodecadiene | also showed activity with both FPP and GPP, yielding α-bergamotene | purified geosmin synthase yielded the sesquiterpenoids geosmin, germacradienol and germacrene D | we tested its functionality with FPP in in vitro conditions. This yielded germacradienol and germacrene D | converted FPP into only aromadendrene in in vitro analysis | When ScEpiS was incubated with FPP the products obtained were 10-epi-α-cubinene | – | – | –
2 | CC(C)=CCC/C(C)=C/COP(=O)(O)OP(=O)(O)O [GPP] | – | – | – | – | – | – | – | Incubation with GPP yielded both R- and S- linalool isomers | also showed activity with both FPP and GPP, yielding α-bergamotene | with GPP yielded the monoterpene products cis- and trans-β-ocimene

From publication PMC7192455, “Exploring novel bacterial terpene synthases” (PLoS ONE, 2020)
